From patent US7407982B2, “Oligo or polyalkylene glycol-coupled thrombin inhibitors” (HaemoSys GmbH, priority 2001, dated 2008)
pKi: −log10 of the molar value. Like-named read-outs stand apart in the source and are kept apart here.

Key:
human α-thrombin = molecular target: T1, human α-thrombin (Homo sapiens, UniProt P00734); assay: Determination of Ki for thrombin inhibition (chromogenic or fluorogenic substrate, Dixon); type: biochemical; details: for KiTrypsin/KiThrombin: Example 8, selectivity quotient
T1 construct: 50 μl human α-thrombin (Kordia); purchased Kordia
Experimental: The Ki values are the average values of at least three calculations.
For determining the thrombin inhibiting effect of all reversibly binding inhibitors and inhibitor conjugates with inhibiting constants smaller than 1 nM, a fluorescence spectrometer (LS50B from the company Perkin Elmer) was used. […] The Ki values are the average values of at least three calculations.

trypsin = molecular target: T2, trypsin (Bos taurus, UniProt P00760); assay: Ki values for trypsin, determined analogously; type: biochemical
T2 sequence (P00760 24-246): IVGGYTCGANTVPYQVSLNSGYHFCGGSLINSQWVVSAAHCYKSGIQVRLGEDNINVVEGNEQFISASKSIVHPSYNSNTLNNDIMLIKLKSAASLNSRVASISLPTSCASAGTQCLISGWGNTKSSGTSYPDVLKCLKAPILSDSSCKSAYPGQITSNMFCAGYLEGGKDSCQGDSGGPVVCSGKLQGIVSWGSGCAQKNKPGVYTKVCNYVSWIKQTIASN
Experimental: The Ki values for trypsin were determined analogously.
For optimizing the inhibitor conjugates, in particular of the following Examples 1 and 2, suitable groups R1 were sought which allow as strong a thrombin inhibition as possible. For examining the selectivity of the compounds, the inhibiting constants for trypsin were determined as well. The higher the quotient [KiTrypsin/KiThrombin], the more selectively the compound functions as a thrombin inhibitor. In order to facilitate the synthesis, this optimization was first carried out without coupling a polyalkylene glycol group to inhibitor molecules of formula (II) as listed in Table I. These compounds, which are active as thrombin inhibitors themselves, can be used as synthetic intermediates for the inhibitor conjugates of formula (I). As a central component, a glycyl-prolyl-dipeptide was consistently incorporated into the inhibitors.

plasmin = plasmin (Homo sapiens, UniProt P00747); assay: Inhibiting constants with respect to plasmin; type: biochemical; details: Example 8a table
From the text: (§1) For this reason, two selected representatives of the inhibitors without PEG described in Tables 1 and 2 and one PEG-coupled inhibitor were examined with respect to their inhibiting effect on these enzymes.
(§2) Inhibiting constants of selected inhibitors with respect to the enzymes thrombin, plasmin, urokinase and tPA (values given in nM).

urokinase = urokinase (Homo sapiens, UniProt P00749); assay: Inhibiting constants with respect to urokinase; type: biochemical; details: Example 8a table
From the text: as §1, §2

tPA = tPA (Homo sapiens, UniProt P00750); assay: Inhibiting constants with respect to tPA; type: biochemical; details: Example 8a table
From the text: as §1, §2

thrombin [1] = molecular target: T3, thrombin (Homo sapiens, UniProt P00734); details: taken from the literature, cited from earlier work
thrombin [2] = molecular target: T3, thrombin; assay: Kinetic constants of chloromethyl ketone inhibitors (method of Stein and Trainor); type: biochemical; details: chloromethyl ketone inhibitor; for pKi: read-out: Kii
[3] = Elimination of the inhibitor conjugates in rats (blood level, urine recovery, clotting test); type: in vivo; details: female, Wistar, rat; for half-life: blood
Experimental: Preliminary remarks: Female Wistar rats with a body weight between 150 to 250 g were used for the experiments. The animals were kept under conventional conditions and were provided with standard food and water ad libitum. Anaesthetization was carried out with 1.5 g ethylurethane per kg of body weight. Then the right and left jugular veins were prepared and catheters were inserted so that blood could be drawn at different points of time. The urine was collected throughout the entire test period and the inhibitor concentration was determined by means of a clotting test.

[4] = Example 8, read-out: KiThrombin
[5] = Table I, formula (II) compounds
[6] = Table 2, formula (III) compounds

Sequence of tPA (P00750 36-562, species assumed): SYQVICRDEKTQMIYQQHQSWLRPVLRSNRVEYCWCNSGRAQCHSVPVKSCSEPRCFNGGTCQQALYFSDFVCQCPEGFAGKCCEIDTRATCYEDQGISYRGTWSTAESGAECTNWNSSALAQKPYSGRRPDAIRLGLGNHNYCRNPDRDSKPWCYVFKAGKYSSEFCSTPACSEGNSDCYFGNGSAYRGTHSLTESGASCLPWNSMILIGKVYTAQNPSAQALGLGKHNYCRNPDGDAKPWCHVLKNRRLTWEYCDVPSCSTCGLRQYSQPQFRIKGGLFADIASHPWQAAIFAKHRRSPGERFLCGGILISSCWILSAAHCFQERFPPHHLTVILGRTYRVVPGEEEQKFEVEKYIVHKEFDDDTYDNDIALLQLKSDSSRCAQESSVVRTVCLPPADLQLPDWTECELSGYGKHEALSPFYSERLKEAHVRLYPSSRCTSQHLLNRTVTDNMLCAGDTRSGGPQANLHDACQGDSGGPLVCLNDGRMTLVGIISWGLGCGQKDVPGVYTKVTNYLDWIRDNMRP
Sequence of plasmin (P00747 581-810 limits assumed, species assumed): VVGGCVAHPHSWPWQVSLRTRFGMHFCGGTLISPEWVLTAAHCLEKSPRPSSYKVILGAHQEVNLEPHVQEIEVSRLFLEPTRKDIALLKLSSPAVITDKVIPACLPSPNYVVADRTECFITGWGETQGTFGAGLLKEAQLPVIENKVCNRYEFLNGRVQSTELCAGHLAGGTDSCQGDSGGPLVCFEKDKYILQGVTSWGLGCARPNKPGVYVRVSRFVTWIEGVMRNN
Sequence of plasmin (P00747 97-580 partner limits assumed, species assumed): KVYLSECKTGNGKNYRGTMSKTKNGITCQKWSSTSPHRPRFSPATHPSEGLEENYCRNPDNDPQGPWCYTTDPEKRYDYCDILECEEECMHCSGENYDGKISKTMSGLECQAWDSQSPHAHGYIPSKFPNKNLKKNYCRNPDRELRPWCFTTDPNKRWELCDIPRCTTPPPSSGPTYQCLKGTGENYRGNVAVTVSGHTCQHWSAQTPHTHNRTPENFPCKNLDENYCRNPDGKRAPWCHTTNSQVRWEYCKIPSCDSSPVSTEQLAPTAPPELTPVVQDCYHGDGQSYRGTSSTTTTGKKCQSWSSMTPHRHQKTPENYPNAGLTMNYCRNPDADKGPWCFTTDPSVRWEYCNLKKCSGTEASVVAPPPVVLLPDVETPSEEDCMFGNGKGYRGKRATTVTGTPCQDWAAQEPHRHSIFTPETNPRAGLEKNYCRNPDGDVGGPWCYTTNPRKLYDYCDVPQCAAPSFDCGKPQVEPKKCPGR

For “4-methoxy-benzenesulfonyl-Asn(PEG2000-OMe)-Pro-4-amidinobenzylamide”, the KiTrypsin/KiThrombin (human α-thrombin) was 174, the pKi (human α-thrombin; [4]) was 9.28 and the pKi (trypsin; Example 8, read-out: KiTrypsin) was 7.03. For the same compound, the pKi (plasmin) was 4.47, the pKi (urokinase) was 3.80 and the pKi (tPA) was 3.22.

In the case of `COc1ccc(S(=O)(=O)NCC(=O)N2CCC[C@H]2C(=O)NCc2ccc(C(=N)N)cc2)cc1` [1c], the “Ki Trypsin/Ki Thrombin” value (human α-thrombin; Table 2, selectivity quotient) was 23.4, the pKi (human α-thrombin; [5]) was 9.01 and the “Ki Trypsin/Ki Thrombin” value (human α-thrombin; Table I, selectivity quotient) was 23.4. The pKi (plasmin) was 5.24, the pKi (urokinase) was 3.65 and the pKi (tPA) was 6.20.

In the case of `NC(N)=NCCC[C@H](NC(=O)[C@@H]1CCCN1C(=O)[C@H](N)Cc1ccccc1)C(=O)CCl` [PPACK, D-Phe-Pro-Arg-CH2—Cl], the Kinact/Ki (thrombin [1]) is listed as 4.4e+06 M⁻¹ s⁻¹, the kinact (thrombin [1]) is listed as 0.11 s⁻¹ and the pKi (thrombin [1]; read-out: Kii) is listed as 7.60.

Compound `N=C(N)NCCC[C@H](NC(=O)[C@@H]1CCCN1C(=O)[C@@H](CC1CCCCC1)NCC(=O)O)C(=O)CCl.O=C(O)C(F)(F)F.O=C(O)C(F)(F)F` [analogous non-PEG-coupled compound, H-d-N(CH2—COOH)Cha-Pro-Arg-CH2—Cl×2 trifluoroacetic acid, reference compound] has a Kinact/Ki (thrombin [2]) of 2.1e+07 M⁻¹ s⁻¹, a kinact (thrombin [2]) of 0.079 s⁻¹ and a pKi (thrombin [2]) of 8.42.

In the case of `N=C(N)c1ccc(CNC(=O)[C@@H]2CCCN2C(=O)[C@H](CC(=O)OCc2ccccc2)NS(=O)(=O)c2ccc3ccccc3c2)cc1` [compound 36], the pKi (human α-thrombin; [6]) was 8.89, the “Ki Trypsin/Ki Thrombin” value (human α-thrombin; Table 2, selectivity quotient) was 13.6 and the pKi (trypsin; [6]) was 7.75.

In the case of `N=C(N)c1ccc(CNC(=O)[C@@H]2CCCN2C(=O)[C@H](CN)NS(=O)(=O)c2ccc3ccccc3c2)cc1` [compound 37], the pKi (human α-thrombin; [6]) was 8.62, the “Ki Trypsin/Ki Thrombin” value (human α-thrombin; Table 2, selectivity quotient) was 4.3 and the pKi (trypsin; [6]) was 7.99.

For `N=C(N)c1ccc(CNC(=O)[C@@H]2CCCN2C(=O)[C@@H](CC(N)=O)NS(=O)(=O)c2ccc3ccccc3c2)cc1` [compound 43], the pKi (human α-thrombin; [6]) was 7.28, the “Ki Trypsin/Ki Thrombin” value (human α-thrombin; Table 2, selectivity quotient) was 0.42 and the pKi (trypsin; [6]) was 7.65.

With `COc1ccc(S(=O)(=O)N[C@@H](CC(=O)NCc2ccc(C#N)cc2)C(=O)N2CCC[C@H]2C(=O)NCc2ccc(C(=N)N)cc2)cc1` [compound 44] the pKi (human α-thrombin; [6]) was 10.35, the “Ki Trypsin/Ki Thrombin” value (human α-thrombin; Table 2, selectivity quotient) was 911 and the pKi (trypsin; [6]) was 7.39.

For `COc1ccc(S(=O)(=O)N[C@@H](CC(=O)NCc2ccc(CN)cc2)C(=O)N2CCC[C@H]2C(=O)NCc2ccc(C(=N)N)cc2)cc1` [compound 45], the pKi (human α-thrombin; [6]) was 10.21, the “Ki Trypsin/Ki Thrombin” value (human α-thrombin; Table 2, selectivity quotient) was 639 and the pKi (trypsin; [6]) was 7.41.

With `COc1ccc(S(=O)(=O)N[C@@H](CC(=O)NCc2ccccc2)C(=O)N2CCC[C@H]2C(=O)NCc2ccc(C(=N)N)cc2)cc1` [compound 47] the pKi (human α-thrombin; [6]) was 10.19, the “Ki Trypsin/Ki Thrombin” value (human α-thrombin; Table 2, selectivity quotient) was 600 and the pKi (trypsin; [6]) was 7.41.

In the case of `COc1ccc(S(=O)(=O)N[C@@H](CC(=O)NCc2cccc(CN)c2)C(=O)N2CCC[C@H]2C(=O)NCc2ccc(C(=N)N)cc2)cc1` [compound 48], the pKi (human α-thrombin; [6]) was 10.10, the “Ki Trypsin/Ki Thrombin” value (human α-thrombin; Table 2, selectivity quotient) was 512 and the pKi (trypsin; [6]) was 7.39.

In the case of `COc1ccc(S(=O)(=O)N[C@@H](CC(=O)OCc2ccccc2)C(=O)N2CCC[C@H]2C(=O)NCc2ccc(C(=N)N)cc2)cc1` [compound 49], the pKi (human α-thrombin; [6]) was 9.68, the “Ki Trypsin/Ki Thrombin” value (human α-thrombin; Table 2, selectivity quotient) was 181 and the pKi (trypsin; [6]) was 7.42.

In the case of `COc1ccc(S(=O)(=O)NC(CC(N)=O)C(=O)N2CCCC2C(=O)NCc2ccc(C(=N)N)cc2)cc1` (centres unmarked) [compound 50], the pKi (human α-thrombin; [6]) was 9.44, the “Ki Trypsin/Ki Thrombin” value (human α-thrombin; Table 2, selectivity quotient) was 147 and the pKi (plasmin) was 4.76. For the same compound, the pKi (urokinase) was 4.28 and the pKi (tPA) was 4.33.

For `COc1ccc(S(=O)(=O)N[C@@H](CO)C(=O)N2CCC[C@H]2C(=O)NCc2ccc(C(=N)N)cc2)cc1` [compound 51], the pKi (human α-thrombin; [6]) was 9.59, the “Ki Trypsin/Ki Thrombin” value (human α-thrombin; Table 2, selectivity quotient) was 67 and the pKi (trypsin; [6]) was 7.77.

In the case of `COC(=O)C[C@H](NS(=O)(=O)c1ccc(OC)cc1)C(=O)N1CCC[C@H]1C(=O)NCc1ccc(C(=N)N)cc1` [compound 52], the pKi (human α-thrombin; [6]) was 9.17, the “Ki Trypsin/Ki Thrombin” value (human α-thrombin; Table 2, selectivity quotient) was 31 and the pKi (trypsin; [6]) was 7.67.

Work on `N=C(N)N1CCC(CNC(=O)[C@@H]2CCCN2C(=O)[C@@H](CC2CCCCC2)NCC(=O)O)CC1` [formula (IV)] yielded a half-life ([3]; intravenous administration of 10 mg/kg) of about 0.275 h and a dose excreted ([3]; urine, sc, rats, subcutaneous administration, read-out: cumulative percentage recovery in the urine) of about 58%.

Work on `N=C(N)N1CCC(CNC(=O)[C@@H]2CCCN2C(=O)[C@@H](CC2CCCCC2)NCC(=O)NCC2COCCOCCOCCOCCO2)CC1` (some centres unmarked) [inhibitor structure (VI)] yielded a half-life ([3]; sc, rats, subcutaneous administration of 5 mg/kg) of about 5.83 h.

“D-N(CH2—CO—NH-PEG5000-OMe)Cha-Pro-4-(amidomethyl)-N(amidino)piperidine×2 HCl” gave a KiTrypsin/KiThrombin (human α-thrombin) of 100, a pKi (human α-thrombin; [4]) of 8.62 and a pKi (human α-thrombin; [5]) of 8.46. For the same compound, the “Ki Trypsin/Ki Thrombin” value (human α-thrombin; Table I, selectivity quotient) was 1.8, the pKi (trypsin; Example 8, read-out: KiTrypsin) was 6.62 and the pKi (trypsin; [5]) was 8.21.

In the case of “H-D-N(CH2—CO—NH-PEG5000-OMe)Cha-Pro-4-(amidino)benzylamide”, the KiTrypsin/KiThrombin (human α-thrombin) was 3.5, the pKi (human α-thrombin; [4]) was 9.01 and the pKi (human α-thrombin; [5]) was 8.72. For the same compound, the “Ki Trypsin/Ki Thrombin” value (human α-thrombin; Table I, selectivity quotient) was 1.6, the pKi (trypsin; Example 8, read-out: KiTrypsin) was 8.47 and the pKi (trypsin; [5]) was 8.52.

In the case of “H-d-N(CH2—CONH-PEG2000-OMe)Cha-Pro-Arg-CH2—Cl×2 trifluoroacetic acid”, the pKi (human α-thrombin; [5]) was 8.42, the “Ki Trypsin/Ki Thrombin” value (human α-thrombin; Table I, selectivity quotient) was 0.97 and the pKi (trypsin; [5]) was 8.43. For the same compound, the Kinact/Ki (thrombin [2]) was 7.5e+06 M⁻¹ s⁻¹, the kinact (thrombin [2]) was 0.08 s⁻¹ and the pKi (thrombin [2]) was 7.97.
